Test: Therapeutic duration of action of an immediate release dose (from dosing instructions in labeling)
Type: in vivo
Source text: As used herein, “ATDAIRD” shall mean the average therapeutic duration of action of an effective immediate release dose” of a particular active ingredient. […] The therapeutic duration of action of a particular active ingredient can readily be determined from the dosing instructions in the labeling for immediate release products containing that particular active ingredient.

SMILES | ATDAIRD (average therapeutic duration of action of an effective immediate release dose) [h]
CC(C)Cc1ccc(C(C)C(=O)O)cc1 (stereo not drawn) [ibuprofen, 2-(4-isobutylphenyl)-propionic acid] | 5
CC(C(=O)O)c1cccc(C(=O)c2ccccc2)c1 (stereo not drawn) [ketoprofen] | 5
COc1ccc2cc([C@H](C)C(=O)O)ccc2c1 [naproxen] | 10

— patent US20050095299A1, “Controlled release analgesic suspensions” (priority 2003, published 2005)
